In ChEMBL document CHEMBL4393693, “Synthesis and Structure-Activity relationship of 1-(5-isoquinolinesulfonyl)piperazine analogues as inhibitors of Mycobacterium tuberculosis IMPDH” (Eur J Med Chem, 2019):

Assay: Inhibition of recombinant N-terminal His6-tagged Mycobacterium tuberculosis H37Rv IMPDH expressed in Escherichia coli BL21 (DE3) cells assessed as reduction of NAD+ to NADH using IMP and NAD+ as substrate treated 1 min after substrate incubation with enzyme by UV-visible spectrophotometry

O=C(NCCNS(=O)(=O)c1cccc2cnccc12)C1CCCCC1
IC50: 500 to 1500 nM
